Data from US11033539B2, “Compounds of formulas (VII), (VIII), (IX), (XI), (XII), (XIII), and (XIV) as muscarinic receptor 4(M4) antagonists for treating neurological diseases” (Neurocrine Biosciences, Inc., priority 2015, dated 2021).

Molecular target: human M4 receptor (Homo sapiens (Human), UniProt P08173)
Assay: Radioligand (tritiated N-methylscopolamine) binding assay, M4
Settings: Ki against the M4 receptor; membranes from CHO cells expressing human M4; tritiated N-methylscopolamine 1.5 nM; read-out: Ki
Outline: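 Test compound (12 concentrations, 10 μM to […]), 1.5 nM radioligand and CHO receptor membranes were co-incubated at 37 °C for 90 minutes in 50 mM HEPES buffer with 100 mM NaCl, 5 mM MgCl2 and 1 mM EDTA, pH 7.4. Membranes were then harvested onto polyethylenimine-pretreated filters and radioactivity was counted to determine Ki.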

Sequence of human M4 receptor (P08173 whole entry): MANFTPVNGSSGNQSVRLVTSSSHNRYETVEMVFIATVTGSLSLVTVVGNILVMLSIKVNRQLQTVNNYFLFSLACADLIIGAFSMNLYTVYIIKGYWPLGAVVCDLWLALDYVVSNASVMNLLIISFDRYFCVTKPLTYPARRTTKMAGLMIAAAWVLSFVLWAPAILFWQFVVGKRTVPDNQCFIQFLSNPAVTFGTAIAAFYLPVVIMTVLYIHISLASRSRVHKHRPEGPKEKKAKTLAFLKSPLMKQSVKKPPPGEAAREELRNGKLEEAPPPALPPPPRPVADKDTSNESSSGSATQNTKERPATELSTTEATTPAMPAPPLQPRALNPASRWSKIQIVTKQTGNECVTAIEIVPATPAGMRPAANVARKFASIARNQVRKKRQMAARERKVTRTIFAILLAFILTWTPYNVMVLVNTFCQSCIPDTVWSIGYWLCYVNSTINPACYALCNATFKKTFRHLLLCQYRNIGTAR

Structure (SMILES)	Ki [nM]
O=C(NCCC1(CO)CCN(Cc2ccccc2)CC1)C1CCN(c2ccc(OC(F)(F)F)cc2)CC1 [9-13, N-{2-[1-benzyl-4-(hydroxymethyl)piperidin-4-yl]ethyl}-1-[4-(trifluoromethoxy)phenyl]piperidine-4-carboxamide]	10 to 100
COC(=O)c1ccc(-c2ccc(C(=O)NCCC3CCN(Cc4ccccc4)CC3)cc2)cc1 [9-14, methyl 4-(4-{[2-(1-benzylpiperidin-4-yl)ethyl]carbamoyl}phenyl)benzoate]	10 to 100
N#Cc1cc(N2CCC(C(=O)NC[C@H](O)C3CCN(Cc4ccccc4)CC3)CC2)ccc1F [9-15, N-[(2R)-2-(1-benzylpiperidin-4-yl)-2-hydroxyethyl]-1-(3-cyano-4-fluorophenyl)piperidine-4-carboxamide]	10 to 100
O=C(NCCC1CCN(Cc2ccccc2)CC1)c1ccc(-c2ccc(C(F)(F)F)cc2)cc1 [9-16, N-[2-(1-benzylpiperidin-4-yl)ethyl]-4-[4-(trifluoromethyl)phenyl]benzamide]	10 to 100
CN(CCNC(=O)C1CCN(c2ccc(OC(F)(F)F)cc2)CC1)[C@H]1CCN(Cc2ccccc2)C1 [9-17, N-(2-{[(3S)-1-benzylpyrrolidin-3-yl](methyl)amino}ethyl)-1-[4-(trifluoromethoxy)phenyl]piperidine-4-carboxamide]	10 to 100
CN(C(=O)c1ccc(Cl)c(-c2nc3ccccc3cc2C#N)c1)[C@@H]1CCN(C2CCCCC2)C1 [9-18, 4-chloro-3-(3-cyanoquinolin-2-yl)-N-[(3R)-1-cyclohexylpyrrolidin-3-yl]-N-methylbenzamide]	100 to 1000
O=C(NCCN1CCC(O)(Cc2ccccc2)CC1)c1ccn2cc(-c3ccc(OC(F)(F)F)cc3)nc2c1 [9-19, N-[2-(4-benzyl-4-hydroxypiperidin-1-yl)ethyl]-2-[4-(trifluoromethoxy)phenyl]imidazo[1,2-a]pyridine-7-carboxamide]	100 to 1000
Cc1cc(Cl)c(-c2cc(C(=O)NCC[C@@H]3CCN(Cc4ccccc4)C3)ccc2Cl)cn1 [9-20, N-{2-[(3R)-1-benzylpyrrolidin-3-yl]ethyl}-4-chloro-3-(4-chloro-6-methylpyridin-3-yl)benzamide]	100 to 1000
O=C(C1CCN(c2ncc(C(F)(F)F)cc2Cl)CC1)N1CCN(C2CCN(Cc3ccccc3)CC2)CC1 [9-21, 1-(1-benzylpiperidin-4-yl)-4-{1-[3-chloro-5-(trifluoromethyl)pyridin-2-yl]piperidine-4-carbonyl}piperazine]	10 to 100
CN(CCNC(=O)C1CCN(c2cccc(OC(F)(F)F)c2)CC1)[C@@H]1CCN(Cc2ccccc2)C1 [9-22, N-(2-{[(3R)-1-benzylpyrrolidin-3-yl](methyl)amino}ethyl)-1-[3-(trifluoromethoxy)phenyl]piperidine-4-carboxamide]	10 to 100
CN(C(=O)C1CCN(c2ccc(OC(F)(F)F)cc2)CC1)C1CCN(C2CCN(Cc3ccccc3)CC2)C1 (stereo not drawn) [9-23, N-[1-(1-benzylpiperidin-4-yl)pyrrolidin-3-yl]-N-methyl-1-[4-(trifluoromethoxy)phenyl]piperidine-4-carboxamide]	10 to 100
N#Cc1cc(N2CCC(C(=O)NCCC3(CO)CCN(Cc4ccccc4)CC3)CC2)ccc1F [9-24, N-{2-[1-benzyl-4-(hydroxymethyl)piperidin-4-yl]ethyl}-1-(3-cyano-4-fluorophenyl)piperidine-4-carboxamide]	10 to 100
O=C(NCCC1CCN(Cc2ccccc2)CC1)c1ccn2cc(-c3ccc(OC(F)(F)F)cc3)nc2c1 [9-25, N-[2-(1-benzylpiperidin-4-yl)ethyl]-2-[4-(trifluoromethoxy)phenyl]imidazo[1,2-a]pyridine-7-carboxamide]	10 to 100
CN(CCNC(=O)C1CCN(c2ccc(OC(F)(F)F)cc2)CC1)[C@@H]1CCN(Cc2ccccc2)C1 [9-26, N-(2-{[(3R)-1-benzylpyrrolidin-3-yl](methyl)amino}ethyl)-1-[4-(trifluoromethoxy)phenyl]piperidine-4-carboxamide]	10 to 100
O=C(NCCC1CCN(Cc2ccccc2)CC1O)C1CCN(c2ccc(OC(F)(F)F)cc2)CC1 (stereo not drawn) [9-27, N-[2-(1-benzyl-3-hydroxypiperidin-4-yl)ethyl]-1-[4-(trifluoromethoxy)phenyl]piperidine-4-carboxamide]	10 to 100

Further lines, results first:

Ki [nM]	Structure (SMILES)
10 to 100	O=C(NCCN[C@@H]1CCN(Cc2ccccc2)C1)C1CCN(c2ccc(OC(F)(F)F)c(F)c2)CC1 [9-28, N-(2-{[(3R)-1-benzylpyrrolidin-3-yl]amino}ethyl)-1-[3-fluoro-4-(trifluoromethoxy)phenyl]piperidine-4-carboxamide]
10 to 100	N#Cc1ccc(N2CCC(C(=O)NCCC3CCN(Cc4ccccc4)CC3)CC2)cc1 [9-29, N-[2-(1-benzylpiperidin-4-yl)ethyl]-1-(4-cyanophenyl)piperidine-4-carboxamide]
10 to 100	N#Cc1ccc(-c2ccc(C(=O)NCCC3CCN(Cc4ccccc4)CC3)cc2)cc1 [9-30, N-[2-(1-benzylpiperidin-4-yl)ethyl]-4-(4-cyanophenyl)benzamide]
10 to 100	CN(CCNC(=O)C1CCN(c2cccc(OC(F)(F)F)c2)CC1)[C@H]1CCN(Cc2ccccc2)C1 [9-31, N-(2-{[(3S)-1-benzylpyrrolidin-3-yl](methyl)amino}ethyl)-1-[3-(trifluoromethoxy)phenyl]piperidine-4-carboxamide]
10 to 100	Cc1nc(-c2ccc(C(F)(F)F)cc2)sc1C(=O)NCCC1CCN(Cc2ccccc2)CC1 [9-32, N-[2-(1-benzylpiperidin-4-yl)ethyl]-4-methyl-2-[4-(trifluoromethyl)phenyl]-1,3-thiazole-5-carboxamide]
10 to 100	CN(C1CCN(C(=O)C2CCN(c3ccc(OC(F)(F)F)cc3)CC2)CC1)[C@@H]1CCN(Cc2ccccc2)C1 [9-33, N-[(3R)-1-benzylpyrrolidin-3-yl]-N-methyl-1-{1-[4-(trifluoromethoxy)phenyl]piperidine-4-carbonyl}piperidin-4-amine]
100 to 1000	CN(CCC1CCN(Cc2ccccc2)CC1)C(=O)C1CCN(c2ccc(OC(F)(F)F)cc2)CC1 [9-34, N-[2-(1-benzylpiperidin-4-yl)ethyl]-N-methyl-1-[4-(trifluoromethoxy)phenyl]piperidine-4-carboxamide]
100 to 1000	CN(CCNC(=O)C1CCN(c2ccc(OC(F)(F)F)c(F)c2)CC1)C1CN(Cc2ccccc2)CC1CO (stereo not drawn) [9-35, N-(2-{[1-benzyl-4-(hydroxymethyl)pyrrolidin-3-yl](methyl)amino}ethyl)-1-[3-fluoro-4-(trifluoromethoxy)phenyl]piperidine-4-carboxamide]
100 to 1000	O=C(CCC1CCN(Cc2ccccc2)CC1)NC1CCN(c2ccc(OC(F)(F)F)cc2)CC1 [9-36, 3-(1-benzylpiperidin-4-yl)-N-{1-[4-(trifluoromethoxy)phenyl]piperidin-4-yl}propanamide]
100 to 1000	O=C(NCCC1CCN(Cc2ccccc2)CC1)C1CCN(c2ncc(Br)cn2)CC1 [9-37, N-[2-(1-benzylpiperidin-4-yl)ethyl]-1-(5-bromopyrimidin-2-yl)piperidine-4-carboxamide]
100 to 1000	CN(CCNC(=O)c1ccc(-c2ccccc2)cc1)[C@@H]1CCN(Cc2ccccc2)C1 [9-38, N-(2-{[(3R)-1-benzylpyrrolidin-3-yl](methyl)amino}ethyl)-4-phenylbenzamide]
10 to 100	CN(CCNC(=O)c1ccc(-c2ccc(OC(F)(F)F)cc2)cc1)[C@@H]1CCN(Cc2ccccc2)C1 [9-39, N-(2-{[(3R)-1-benzylpyrrolidin-3-yl](methyl)amino}ethyl)-4-[4-(trifluoromethoxy)phenyl]benzamide]
